From article PMC10215400 (Antibiotics, 2023)

What was measured:
[1] = target: T1, KPC-2 β-lactamase D179Y variant (Klebsiella pneumoniae, UniProt Q93LQ9, D178Y); assay type: binding
[2] = target: T2, KPC-2 β-lactamase D179N variant (Klebsiella pneumoniae, UniProt Q93LQ9, D178N); test: time-based mass spectrometry ([…]); assay type: binding
[3] = target: T2, KPC-2 β-lactamase D179N variant; test: stopped-flow hydrolysis progress curves with purified enzyme; timed mass spectrometry; assay type: biochemical
[4] = target: KPC-2 β-lactamase (Klebsiella pneumoniae, UniProt Q93LQ9); test: stopped-flow hydrolysis progress curves with purified enzyme; assay type: biochemical
Sequence of KPC-2 β-lactamase (Q93LQ9 25-293 limits assumed): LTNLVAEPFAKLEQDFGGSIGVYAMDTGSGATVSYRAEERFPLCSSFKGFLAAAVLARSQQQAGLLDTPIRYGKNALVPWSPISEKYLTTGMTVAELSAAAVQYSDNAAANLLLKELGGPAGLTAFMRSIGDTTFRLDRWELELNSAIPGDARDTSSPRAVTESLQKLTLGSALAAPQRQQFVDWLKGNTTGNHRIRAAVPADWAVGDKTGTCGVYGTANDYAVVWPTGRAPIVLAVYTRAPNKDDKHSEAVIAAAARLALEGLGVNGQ

[5] = target: T1, KPC-2 β-lactamase D179Y variant; test: time-based mass spectrometry of acyl-complex ([…]); no turnover in stopped-flow; assay type: binding

T1 sequence (Q93LQ9 25-293 D178Y): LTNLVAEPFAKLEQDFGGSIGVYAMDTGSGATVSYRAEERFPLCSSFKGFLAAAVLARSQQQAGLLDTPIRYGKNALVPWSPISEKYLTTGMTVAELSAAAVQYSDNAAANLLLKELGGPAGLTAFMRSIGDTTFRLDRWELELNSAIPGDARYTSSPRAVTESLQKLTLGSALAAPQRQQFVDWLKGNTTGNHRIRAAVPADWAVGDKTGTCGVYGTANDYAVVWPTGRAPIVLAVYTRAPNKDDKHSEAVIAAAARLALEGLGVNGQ
T2 sequence (Q93LQ9 25-293 D178N): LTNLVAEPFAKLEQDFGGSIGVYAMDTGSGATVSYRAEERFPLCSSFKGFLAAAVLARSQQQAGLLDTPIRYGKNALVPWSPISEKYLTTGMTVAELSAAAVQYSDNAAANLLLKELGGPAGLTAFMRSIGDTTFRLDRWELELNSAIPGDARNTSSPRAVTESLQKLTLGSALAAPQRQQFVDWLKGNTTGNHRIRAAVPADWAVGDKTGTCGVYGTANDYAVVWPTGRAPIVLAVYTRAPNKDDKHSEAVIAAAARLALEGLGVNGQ

| Compound | time-based mass spectrometry of acyl-complex (1:1) [1] | time-based mass spectrometry (1:1) [2] | stopped-flow hydrolysis progress curves with purified enzyme; timed mass spectro [3] | stopped-flow hydrolysis progress curves with purified enzyme [4] | time-based mass spectrometry of acyl-complex (1:1); no turnover in stopped-flow [5] |
| --- | --- | --- | --- | --- | --- |
| NC(=O)[C@@H]1CC[C@@H]2CN1C(=O)N2OS(=O)(=O)O [avibactam] | relebactam is slower to form an acyl complex with the D179Y variant compared to avibactam | Relebactam and avibactam behaved similarly vs. the D179N variant. | – | – | – |
| C[C@@H](O)[C@H]1C(=O)N2C(C(=O)O)=C(SCCN=CN)C[C@H]12 [imipenem] | – | – | KPC-2 (blue line) and the D179N variant (yellow line) both hydrolyzed imipenem | KPC-2 (blue line) and the D179N variant (yellow line) both hydrolyzed imipenem | acyl-complexes with imipenem and ceftazidime with the D179N variant was captured less often compared to the D179Y variant |
| O=C(NC1CCNCC1)[C@@H]1CC[C@@H]2CN1C(=O)N2OS(=O)(=O)O [relebactam] | relebactam is slower to form an acyl complex with the D179Y variant compared to avibactam | – | – | – | – |
